From patent US11299509B2, “Trigger-activatable sugar conjugates for cancer-selective labeling and targeting” (The Board of Trustees of the University of Illinois, priority 2017, dated 2022)

What was measured:
[1] = Maximum tolerable dose (MTD) after i.v. injection; conditions: CD-1, mouse, in vivo
Method: (§1) The maximum tolerable dose (MTD) of the two conjugates were also evaluated in CD-1 mice (FIG. 9). […] The sulfo-DBCO-TEG-VC-DOX was injected using PBS with only one time administration.
(§2) The maximum tolerable dose (MTD) of the two conjugates were also evaluated in mice (FIG. 15).
(§3) A model DBCO-paclitaxel conjugate, PTX-TEG-DBCO was prepared through well-established reactions.

physchem = experiment: physchem
Method: Two DBCO-doxorubicin conjugates were synthesized with a cathepsin-B responsive peptide linker (VC). A tetraethyleneglycol unit was incorporated to improve the solubility of the conjugates (FIG. 7). A sulfonic acid-containing conjugate, sulfo-DBCO-TEG-VC-DOX was also prepared to further improve the solubility of the conjugate. […] The solubility of the two conjugates were first tested.
DBCO-DM1 conjugates (FIG. 11) were then synthesized through well-established chemistries. A polyethylene glycol 5000 was used in the design to serve the following purpose: 1. […] To increase the hydrophilicity of the drug conjugate such that its passive uptake in non-azide labeled cells can be reduced; 3. To increase the blood circulation half-time (pharmacokinetics) of the molecule in vivo.

CD-1 mice = experiment: Maximum tolerable dose (MTD) after i.v. injection; conditions: for Maximum tolerable dose (MTD): single i.v. injection, <20% body weight loss
Method: as §1, §2, §3

[2] = test system: MDA-MB-231 breast cancer cell; experiment: MTT assay to evaluate in vitro cytotoxicity; assay type: cell-based; conditions: 72 hours
Method: Standard MTT protocol was followed to evaluate the cytotoxicity of DBCO-drug conjugate. Briefly, MDA-MB-231 cells were seeded in 96-well plate at 3000 cells/well in 100 μL DMEM medium and were allowed to attach overnight. 10 μL DBCO-drug conjugate solution was added into the well to the designated final concentration and incubated at 37° C. for 72 hours. PBS was taken as 100% control. 20 μL 5 mg/mL MTT solution was added to the medium and incubated at 37° C. for 3 hours.

[3] = test system: a variety of breast cancer cell lines; conditions: down to; cited from earlier work
[4] = test system: HepG2 (liver cancer) cells; experiment: Metabolic azido-sugar cell labeling, DBCO-Cy5 detection by flow cytometry; assay type: cell-based; conditions: for Cell labeling (Cy5 fluorescence on the cell surface): 50 μM sugar, 72 h, DBCO-Cy5 25 μM, no UV
Method: (§4) These cells were incubated with Ac4GalNAz (AAG), Ac3GalNAzEt (AAG-Et), and PBS respectively for three days.
(§5) It is known that galactosamine can be preferentially taken up by hepatocytes (a type of liver cells) due to the presence of cell receptors such as asialoglycoprotein receptor (ASGPR). Tetraacetyl-N-azidoacetylgalactosamine (AAG) is relative hydrophobic and can passively diffuse into cells through hydrophobic interactions with the lipid cell membrane while N-azidoacetylgalactosamine (AG) is too hydrophilic to penetrate the lipid barrier by passive diffusion. Therefore, AG can only be taken up by cells through receptor-mediated endocytosis.
(§6) Cells were seeded onto coverslips in a 6-well plate at a cell density of 40 k/well. AAG or AAG derivatives were added and incubated with cells for 72 h. […] The opti-MEM was then removed and cells were washed with PBS three times. Cells were lifted by incubating with trypsin solution (100 μL) at 37° C. for 5 min and transferred to test tubes with addition of 4% PFA solution (0.4 mL). Ten thousand cells per sample were analyzed by flow cytometry and data analysis was performed on the FCS Express software.
(§7) AAG-Nb with a final concentration of 50 μM was added. UV light (10 mW/m^2) was applied for 15 min at the start of incubation, and the cells were further incubated for 72 h. Cells without UV irradiation were continuously incubated for 72 h. Cell samples for flow cytometry were then prepared following the above-mentioned procedures.

Jurkat (lymphoma) cells = experiment: as above; assay type: cell-based; conditions: 50 μM sugar, 72 h, DBCO-Cy5 25 μM, no UV
Method: as §4, §5, §6, §7

[5] = test system: MDA-MB-231 (triple negative breast cancer) cells; experiment: as above; assay type: cell-based; conditions: 50 μM sugar, 72 h, DBCO-Cy5 25 μM, no UV
Method: as §4, §5, §6, §7

HepG2 liver cancer cells [6] = experiment: SDS-PAGE analysis of cells treated with azido-sugars; assay type: cell-based; conditions: 72 h, DBCO-Cy5 25 μM
Method: HepG2 liver cancer cells were seeded onto 6-well plate at a cell density of 40 k/well. Different azido-sugars at different concentrations were added and incubated with cells for 72 h. After removal of medium and multiple washing steps, DBCO-Cy5 (25 μM) in opti-MEM was added and incubated with cells at 37° C. for 1 h. The opti-MEM was then removed and cells were washed with PBS three times. The cells were homogenized in 150 μL of lysis buffer (RIPA) containing protease inhibitor. The lysate was incubated at 4° C. for 30 min, followed by centrifugation at 5000 rcf for 5 min to remove insoluble debris. The total concentration of soluble protein in each sample was determined by bicinchoninic acid (BCA) assay and adjusted to the same concentration. 4× loading buffer was added to each sample and 15 μL samples containing 20 μg protein were loaded onto 10% SDS-PAGE gel after heating at 95° C. The gel was run for 60 min under 150 V. Cy-5 fluorescence was imaged by Imagequant LAS 4010 Luminescent image analyzer and the gel was further stained by coomassie blue

HepG2 liver cancer cells [7] = experiment: Confocal imaging of azido-sugar labeled cells; assay type: cell-based; conditions: DBCO-Cy5 stain
Method: Cells were seeded onto coverslips in a 6-well plate at a cell density of 40 k/well. Ac4GalNAz (AAG) or AAG derivatives were added with a final concentration of 50 μM and the cells were incubated at 37° C. for 72 h. The medium was removed and washed with PBS for three times. DBCO-Cy5 (25 μM) in Opti-MEM was then added and the cells were incubated for another 1 h. Then the medium was removed, and the cells were washed with PBS three times. 4% paraformaldehyde (PFA) solution was added to fix the cells for 10 min, followed by staining of cell nucleus with Hoechst (1 μg/mL) and staining of cell membrane with cell mask orange (5 ug/mL) for 10 min. The coverslips were mounted on microscope slides with the addition of ProLong Gold antifade reagent, and the prepared sample was stored in dark for imaging.

HepG2 liver cancer cells [8] = experiment: MTT cell viability assay of azido-sugars; assay type: cell-based; conditions: up to 200 μM, 72 h
Method: HepG2 liver cancer cells were seeded onto coverslips in a 6-well plate at a cell density of 40 k/well. Different azido-sugars (AG, AAG, and AAM) at different concentrations (50 μM-200 μM) were added, and the cells were incubated at 37° C. for 72 h. The medium was removed. Then 20 μL 3-(4,5-dimethyl-2-thiazolyl)-2,5-diphenyl-2H-tetrazolium bromide (MTT) (5 mg/mL in PBS) was added and cultured at 37° C. for 4 h. MTT is a substrate that provides a colorimetric signal in response to viable mitochondria. Following solubilization by 100 μl DMSO, absorbance at 570 nm was measured using a plate reader.

SMILES: CC(=O)O[C@H]1C(=O)[C@@]2(C)C([C@H](OC(=O)c3ccccc3)[C@]3(O)C[C@H](OC(=O)[C@H](OC(=O)COCCOCCOCCOCCNC(=O)CCC(=O)N4Cc5ccccc5C#Cc5ccccc54)[C@@H](NC(=O)c4ccccc4)c4ccccc4)C(C)=C1C3(C)C)[C@]1(OC(C)=O)CO[C@@H]1C[C@@H]2O (stereo partly shown) [PTX-TEG-DBCO]
- MTD ([1]; iv): > 200 mg/kg

SMILES: COc1cccc2c1C(=O)c1c(O)c3c(c(O)c1C2=O)C[C@@](O)(C(=O)CO)C[C@@H]3O[C@H]1C[C@H](NC(=O)OCc2ccc(NC(=O)C(CCCNC(N)=O)NC(=O)[C@@H](NC(=O)CCC(=O)NCCOCCOCCOCCOCCC(=O)NCC(C(=O)NCCC(=O)N3Cc4ccccc4C#Cc4ccccc43)S(=O)(=O)O)C(C)C)cc2)[C@H](O)[C@H](C)O1 (stereo partly shown) [sulfo-DBCO-TEG-VC-DOX]
- solubility (physchem; aqueous buffer): 8000 to 10000 µg/mL
- MTD ([1]; iv): > 120 mg/kg
- Body weight change (CD-1 mice; CD-1 mice, one time administration in PBS, up to highest dose used): No body weight decrease

SMILES: COc1cccc2c1C(=O)c1c(O)c3c(c(O)c1C2=O)C[C@@](O)(C(=O)CO)C[C@@H]3O[C@H]1C[C@H](NC(=O)OCc2ccc(NC(=O)C(CCCNC(N)=O)NC(=O)[C@@H](NC(=O)CCOCCOCCOCCOCCNC(=O)CCC(=O)N3Cc4ccccc4C#Cc4ccccc43)C(C)C)cc2)[C@H](O)[C@H](C)O1 (stereo partly shown) [DBCO-TEG-VC-DOX]
- solubility (physchem; aqueous buffer): < 50 µM
- solubility (physchem; aqueous with cosolvent or surfactant or cyclodextrin): ~3500 µg/mL
- MTD [1]: > 204 mg/kg
- Body weight change (CD-1 mice; mouse, in vivo): No significant body weight loss

SMILES: COc1cc2cc(c1Cl)N(C)C(=O)C[C@H](OC(=O)[C@H](C)N(C)C(=O)CCS)[C@]1(C)O[C@H]1[C@H](C)[C@@H]1C[C@@](O)(NC(=O)O1)[C@H](OC)/C=C/C=C(\C)C2 [DM1, Mertansine]
- IC50 [2]: ~0.03 nM
- in vitro IC50 value [3]: tens

SMILES: CC(=O)OC[C@H]1OC(OC(C)=O)[C@@H](NC(=O)CN=[N+]=[N-])[C@@H](OC(C)=O)[C@@H]1OC(C)=O (stereo partly shown) [AAM, tetraacetyl-N-azidoacetylmannosamine]
- Cell labeling (Cy5 fluorescence on the cell surface) [4]: efficiently labeled
- Cell labeling (Cy5 fluorescence on the cell surface) (Jurkat (lymphoma) cells): efficiently labeled
- Cell labeling (Cy5 fluorescence on the cell surface) [5]: efficiently labeled

SMILES: [N-]=[N+]=NCC(=O)N[C@H]1C(O)O[C@H](CO)[C@H](O)[C@@H]1O (stereo partly shown) [AG, N-azidoacetylgalactosamine]
- Cell labeling (Cy5 fluorescence on the cell surface) [4]: positively labeled
- Concentration dependence of labeling ([4]; concentration increased from 25 μM to 200 μM): increased significantly
- Cell labeling (Cy5 fluorescence on the cell surface) (Jurkat (lymphoma) cells): only HepG2 cells were positively labeled
- Cell labeling (Cy5 fluorescence on the cell surface) [5]: only HepG2 cells were positively labeled
- Azide groups on cell surface membrane protein (SDS-PAGE, Cy5 fluorescence) (HepG2 liver cancer cells [6]): did containing azide groups
- Localization of labeling (confocal microscopy) (HepG2 liver cancer cells [7]): mainly localized on cell membrane
- Toxicity to cells (MTT) (HepG2 liver cancer cells [8]): not toxic

SMILES: N.N.[Cl][Pt][Cl] [cisplatin, reference compound]
- Maximum tolerable dose (MTD) (CD-1 mice; CD-1 mice): about 5 mg/kg
- Maximum tolerable dose (MTD) (CD-1 mice; CD-1 mice, listed as cis-platin): 5 mg/kg

SMILES: CC(=O)OC[C@H]1OC(OC(C)=O)[C@H](NC(=O)CN=[N+]=[N-])[C@@H](OC(C)=O)[C@H]1OC(C)=O (stereo partly shown) [AAG, Tetraacetyl-N-azidoacetylgalactosamine]
- Cell labeling (Cy5 fluorescence on the cell surface) [4]: efficiently labeled
- Cell labeling (Cy5 fluorescence on the cell surface) (Jurkat (lymphoma) cells): efficiently labeled
- Cell labeling (Cy5 fluorescence on the cell surface) [5]: efficiently labeled
